Measurements as given in article PMC9691607 (Journal of medicinal chemistry, 2022).

What was measured:
human HDAC6 = molecular target: T1, human HDAC6 (Homo sapiens, UniProt Q9UBN7); test: HDAC6 inhibition assay; format: biochemical; conditions: selectivity index HDAC1/6
T1 sequence (Q9UBN7 1-1215): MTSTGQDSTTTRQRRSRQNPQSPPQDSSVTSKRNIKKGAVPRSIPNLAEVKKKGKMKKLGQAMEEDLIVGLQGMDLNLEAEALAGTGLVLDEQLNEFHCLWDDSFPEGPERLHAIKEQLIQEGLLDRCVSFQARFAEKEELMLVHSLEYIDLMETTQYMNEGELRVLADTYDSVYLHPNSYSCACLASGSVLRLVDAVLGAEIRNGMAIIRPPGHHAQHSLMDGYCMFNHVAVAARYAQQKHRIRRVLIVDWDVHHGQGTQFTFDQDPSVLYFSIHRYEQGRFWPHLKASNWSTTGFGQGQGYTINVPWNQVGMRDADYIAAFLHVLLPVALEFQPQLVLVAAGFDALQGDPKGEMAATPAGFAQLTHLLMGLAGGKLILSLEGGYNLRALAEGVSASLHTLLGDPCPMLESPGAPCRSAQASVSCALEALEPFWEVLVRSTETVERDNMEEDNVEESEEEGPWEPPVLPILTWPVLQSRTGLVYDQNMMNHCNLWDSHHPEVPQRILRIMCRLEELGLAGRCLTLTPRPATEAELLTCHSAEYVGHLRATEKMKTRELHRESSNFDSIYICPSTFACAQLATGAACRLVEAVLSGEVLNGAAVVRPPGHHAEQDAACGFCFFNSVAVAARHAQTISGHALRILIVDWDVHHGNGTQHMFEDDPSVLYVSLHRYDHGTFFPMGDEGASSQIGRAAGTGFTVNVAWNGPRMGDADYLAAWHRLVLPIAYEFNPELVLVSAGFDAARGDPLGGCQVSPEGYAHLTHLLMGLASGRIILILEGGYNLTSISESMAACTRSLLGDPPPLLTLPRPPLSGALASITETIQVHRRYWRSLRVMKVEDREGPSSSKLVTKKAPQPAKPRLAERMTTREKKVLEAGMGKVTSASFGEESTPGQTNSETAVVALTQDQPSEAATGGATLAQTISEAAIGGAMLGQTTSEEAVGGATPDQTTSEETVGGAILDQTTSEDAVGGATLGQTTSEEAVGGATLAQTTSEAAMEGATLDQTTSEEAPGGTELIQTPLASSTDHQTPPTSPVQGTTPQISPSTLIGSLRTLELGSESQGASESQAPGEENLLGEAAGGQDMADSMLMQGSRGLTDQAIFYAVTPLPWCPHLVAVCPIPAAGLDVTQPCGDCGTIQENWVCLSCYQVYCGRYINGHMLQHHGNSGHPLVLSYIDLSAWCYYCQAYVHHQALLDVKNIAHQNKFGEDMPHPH

HDAC1 = conditions: read-out: HDAC1 IC50; Sandrone et al., different substrates; ref [47]; cited from earlier work
HDAC6 = conditions: ref [47], cited from earlier work; for IC50: read-out: HDAC6 IC50, Sandrone et al., different substrates; for SI (IC50 (HDAC1)/IC50 (HDAC6)): selectivity index HDAC1/6, Sandrone et al.
HL60 = test: Combinatorial drug screening with decitabine, HL60; format: cell-based; conditions: combination with decitabine, HL60, 72 h co-treatment
MOLM13 = test: Combinatorial drug screening with decitabine, MOLM13; format: cell-based; conditions: combination with decitabine, MOLM13, 72 h co-treatment
HL60 cells [1] = test: Annexin V / PI apoptosis assay; format: cell-based; conditions: 1 μM or 5 μM, 48 h, annexin V and propidium iodide, flow cytometry
HL60 cells [2] = test: Immunoblotting of acetyl-α-tubulin and acetyl-histone H3; format: cell-based; conditions: 24 h; for acetylation of histone 3 (Ac-H3) / acetylation of α-tubulin: IC12.5-IC75 concentrations (ricolinostat at its IC50)
leukemia cell lines = format: cell-based; conditions: broad range of leukemia cell lines from therapy refractory subgroups; two healthy human fibroblast controls; values in Supplementary Table S1
HAL01 = test: Combinatorial drug screening with decitabine, HAL01; format: cell-based; conditions: combination with decitabine, HAL01, 72 h co-treatment
Jurkat = test: Combinatorial drug screening with decitabine, Jurkat; format: cell-based; conditions: combination with decitabine, 72 h co-treatment
HDAC4 = HDAC4 (Homo sapiens, UniProt P56524); test: HDAC4 inhibition assay; format: biochemical
HDAC4, sequence (P56524 627-1084 limits assumed): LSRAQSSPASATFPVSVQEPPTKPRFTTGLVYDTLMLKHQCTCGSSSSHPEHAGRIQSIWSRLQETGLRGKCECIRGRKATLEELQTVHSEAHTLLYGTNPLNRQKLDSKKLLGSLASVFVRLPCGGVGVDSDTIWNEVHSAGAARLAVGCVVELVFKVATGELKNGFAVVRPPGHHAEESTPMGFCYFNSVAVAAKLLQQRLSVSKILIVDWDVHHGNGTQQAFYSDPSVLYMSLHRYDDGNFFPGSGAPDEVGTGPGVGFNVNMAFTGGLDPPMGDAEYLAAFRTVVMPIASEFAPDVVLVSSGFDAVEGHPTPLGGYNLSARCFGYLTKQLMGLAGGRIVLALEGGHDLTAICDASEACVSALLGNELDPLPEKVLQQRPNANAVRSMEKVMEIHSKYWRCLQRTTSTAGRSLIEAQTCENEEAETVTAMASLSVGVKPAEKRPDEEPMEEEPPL

Cc1cc(C)cc(C(=O)N(CC(=O)NCc2ccccc2)Cc2ccc(C(=O)NO)cc2F)c1 [Compound 10g, 4-({N-[(Benzylcarbamoyl)methyl]-1-(3,5-dimethylphenyl)formamido}methyl)-3-fluoro-N-hydroxybenzamide]
SI (IC50 (HDAC1)/IC50 (HDAC6)) (human HDAC6): 6–24

O=C(NO)c1ccccc1 [N-hydroxybenzamide]
IC50 (HDAC1): 25.4 µM | IC50 (HDAC6): 1.34 µM | SI (IC50 (HDAC1)/IC50 (HDAC6)) (HDAC6): 19

CC(C)c1ccccc1C(=O)N(CC(=O)NC(C)(C)C)Cc1ccc(C(=O)NO)cc1F [Compound 10p, 4-({N-[(tert-Butylcarbamoyl)methyl]-1-[2-(propan-2-yl)phenyl]formamido}methyl)-3-fluoro-N-hydroxybenzamide]
ZIP synergy score (HL60): 7.78 | ZIP synergy score (MOLM13): 7.18 | induction of apoptosis (HL60 cells [1]): weaker (in comparison to 10h) although significant (p < 0.05) apoptosis induction | acetylation of histone 3 (Ac-H3) (HL60 cells [2]): no effect on Ac-H3 levels | acetylation of α-tubulin (HL60 cells [2]): induced acetylation of α-tubulin | cellular viability of leukemia cell lines (leukemia cell lines): IC50 values ranging in the high micromolar concentration

O=C(NO)c1cccc(F)c1 [3-fluoro-N-hydroxybenzamide]
IC50 (HDAC1): 29.4 µM | IC50 (HDAC6): 0.453 µM | SI (IC50 (HDAC1)/IC50 (HDAC6)) (HDAC6): 65

CN(C)c1ccc(C(=O)N(CC(=O)NCc2ccccc2)Cc2ccc(C(=O)NO)cc2F)cc1 [Compound 10h, 4-({N-[(Benzylcarbamoyl)methyl]-1-[4-(dimethylamino)phenyl]formamido}methyl)-3-fluoro-N-hydroxybenzamide]
ZIP synergy score (HL60): 25.08 | ZIP synergy score (MOLM13): 27.44 | ZIP synergy score (HAL01): 1.18 | ZIP synergy score (Jurkat): −0.87 | induction of apoptosis (HL60 cells [1]): significant (p < 0.0001) increase in apoptotic cells | acetylation of histone 3 (Ac-H3) (HL60 cells [2]): dose-dependent increase | acetylation of α-tubulin (HL60 cells [2]): dose-dependent increase | acetylation of H3 on co-administration with decitabine (HL60 cells [2]; combination with decitabine vs mono-treatment): strong induction of acetylation of H3 as compared to mono-treatment | cellular viability of leukemia cell lines (leukemia cell lines): markedly outperformed CI994 and ricolinostat

CN(C)c1ccc(C(=O)N(CC(=O)NCc2ccccc2)Cc2ccc(C(=O)NO)cc2)cc1 [DDK137]
IC50 (HDAC4): 2.67 µM

O=C(CCCCCCNC(=O)c1cnc(N(c2ccccc2)c2ccccc2)nc1)NO [Ricolinostat, ricolinostat, reference compound]
acetylation of histone 3 (Ac-H3) (HL60 cells [2]): lower Ac-H3 levels than observed for 10h | acetylation of α-tubulin (HL60 cells [2]): prominent acetylation of α-tubulin
